Test results taken from patent US9107964B2, “Radioactive fluorine-labeled compound” (NIHON MEDI-PHYSICS CO., LTD., priority 2011, dated 2015).
Entries after “also recorded” stand apart in the source; their conditions may differ.

How the values were obtained:
Assay type in all cases: in vivo, mouse (Balb/c nu/nu)
[1] = tested on: mouse-derived breast cancer cell line (EMT6) tumor-bearing model mice; assay: PET imaging of tumor-bearing model mice (incorporation into tumor cells, Example 10); conditions: 60 minutes after administration; for Physiological accumulation in the liver compared with [^18F]FMISO: coronal tomographic PET image; for Excretion route: from coronal tomographic PET image
Procedure: Accumulation of compound 1, compound 2, and compound 3 in tumor cells in vivo was studied as follows using a mouse-derived breast cancer cell line (EMT6).
Preparation of tumor-bearing model mice: the animals used were six-week-old female Balb/c nu/nu mice (obtained from Japan SLC). Using these animals, a Matrigel suspension (cell count 2.5×10^6 cells/0.05 mL) of EMT6, which is a mouse-derived breast cancer cell line (obtained from ATCC), was subcutaneously implanted in a site from the right rib to the right shoulder. It was confirmed on the third day after implantation that the tumor cells were fixed, and the tumor volume attained 200 to 400 mm^3 9 to 11 days after implantation.

[2] = tested on: hypoxic region of EMT6 tumor (pimonidazole-positive area); assay: Correlation between autoradiographic signal intensity (PSL value) and pimonidazole-positive area (Example 13); conditions: tumor tissue sections after PET imaging
Procedure: In order to evaluate whether or not the compound related to the present invention can quantitatively visualize a hypoxic region of a tumor, the following experiment was carried out using compounds 1 to 3 and [^18F]FMISO.
Using a microscope system (model: BZ-9000, Keyence Corporation) a high magnification image of a pimonidazole-positive site was acquired using the entire image of a pathology image obtained by immunohistochemical staining in the Example 12 and a 10× objective lens. The high magnification image was formed with respect to a randomly selected image region. At the same time the image acquisition site was recorded as a navigation image by use of the navigation function of the microscope system. The acquired high magnification image was subjected to image processing, and a pimonidazole-positive area present in the high magnification image was determined.
The autoradiographic image and the stained image of each labeled compound used were those acquired in the Example 12. The resolution of the navigation image was made to match the resolution of the autoradiographic image, and the geometrical positions of two images were aligned using image analysis software.
In the autoradiographic image, an ROI was set for the site that coincided with the high magnification image acquisition site, and the PSL value (Photo-Stimulated Luminescence value) of the ROI was determined. Furthermore, an ROI was set for a site of the same image that contained no sample, and the PSL value thereof was defined as the background. The PSL value of the background was subtracted from the PSL value of the high magnification image acquisition site to obtain the net PSL value. The hypoxic marker pimonidazole-positive area was plotted on the abscissa and the PSL value in the autoradiographic image on the ordinate, and the correlation factor was determined. This series of operations was carried out for each of the labeled compounds.

[3] = tested on: EMT6 tumor-bearing model mice; assay: Biodistribution in tumor and organs of tumor-bearing mouse (Example 14); conditions: for Blood / Gall bladder / Heart / Kidney / Large intestine / Liver / Lung / Muscle / Small intestine / Stomach / T/B (tumor/blood ratio) / T/M (tumor/muscle ratio) / Tumor / Urine: mean; for Blood clearance and urinary excretion: compared with [^18F]FMISO, 60 and 120 minutes after administration
Procedure: The biodistribution of compounds 1 to 3 and [^18F]FMISO in a tumor and each of the organs of a tumor-bearing mouse was measured.
Tumor-bearing model mice used in this experiment were the same as those prepared in Example 10, and 3 or 4 cases that had attained a tumor volume of 200 to 400 mm^3 were selected from each group. The tumor-bearing model mouse was placed under isoflurane anesthesia, pimonidazole that is a hypoxic marker, was administered via a tail vein, and at 10 minutes thereafter, the respective labeled compound was administered. The tumor-bearing model mouse was sacrificed at 60 minutes and 120 minutes after administration. All of the tumor-bearing model mice were sacrificed by blood-letting from the abdominal aorta or by cardiocentesis, and dissection was carried out immediately thereafter. Other than the tumor, the blood, heart, lung, stomach, liver, gallbladder, kidney, small intestine and large intestine, muscle, and urine were sampled, and the other tissues were defined as the remaining whole body. After the weight of each tissue sampled was measured, the amount of radioactivity of the tissue was measured using a gamma counter, and the biodistribution of each of the labeled compounds was compared by converting it into % ID/g (% injection dose/g organ) of each tissue.
In order to examine a hypoxic state within the tumor, immunohistochemical staining of the sample tumor was carried out so as to ascertain whether or not the interior of the tumor was hypoxic. The sampled tumor was fixed using a 20% formalin buffer, and a paraffin block was prepared using an automatic paraffin-embedding apparatus (model: VIP-5-Jr-J0, Sakura Finetek). A slice (thickness: 3 μm) was prepared by means of a microtome (model: Tissue-Tek Feather Trustome, Sakura Finetek). Immunohistochemical staining was carried out by the same method as in Example 12.

[4] = 60 minutes after administration
[5] = 120 minutes after administration

Row | SMILES | Sites of accumulation on coronal tomographic image [1] | Tumor-specific accumulation on axial tomographic image [1] | Physiological accumulation in the liver compared with [^18F]FMISO [1] | Excretion route [1] | Correlation coefficient (pimonidazole-positive area vs PSL value in autoradiographic image) [2] | Blood [3, 4] [% ID/g] | Gall bladder [3, 4] [% ID/g] | Heart [3, 4] [% ID/g] | Kidney [3, 4] [% ID/g] | Large intestine [3, 4] [% ID/g] | Liver [3, 4] [% ID/g] | Lung [3, 4] [% ID/g] | Muscle [3, 4] [% ID/g] | Small intestine [3, 4] [% ID/g] | Stomach [3, 4] [% ID/g] | T/B (tumor/blood ratio) [3, 4] | T/M (tumor/muscle ratio) [3, 4] | Tumor [3, 4] [% ID/g] | Urine [3, 4] [% ID] | Blood [3, 5] [% ID/g] | other results
1 | O=[N+]([O-])c1nccn1CC(CO)(CO)C[18F] [Compound 1, 1-(2,2-Dihydroxymethyl-3-[^18F]fluoropropyl)-2-nitroimidazole] | intense accumulation of compound 1 in the bladder, and accumulation thereof in the gallbladder and the intestinal tract | tumor-specific accumulation separated from normal tissue such as muscle | low physiological accumulation in the liver | excreted via the kidney and urinary tract excretion and hepatobiliary excretion systems | 0.85 | 1.70 | 26.34 | 2.35 | 4.23 | 3.71 | 3.34 | 1.96 | 1.71 | 3.72 | 1.53 | 1.42 | 1.39 | 2.38 | 62.13 | 0.75 | Gall bladder [3, 5]: 8.21 % ID/g; Heart [3, 5]: 1.90 % ID/g; Kidney [3, 5]: 2.91 % ID/g; Large intestine [3, 5]: 2.37 % ID/g; Liver [3, 5]: 4.31 % ID/g; Lung [3, 5]: 0.89 % ID/g; Muscle [3, 5]: 0.84 % ID/g; Small intestine [3, 5]: 2.78 % ID/g; Stomach [3, 5]: 0.88 % ID/g; T/B (tumor/blood ratio) [3, 5]: 2.47; T/M (tumor/muscle ratio) [3, 5]: 2.03; Tumor [3, 5]: 1.65 % ID/g; Urine [3, 5]: 77.76 % ID; Blood clearance and urinary excretion [3]: rapid blood clearance and urinary excretion compared with [^18F]FMISO
2 | O=[N+]([O-])c1nc(CO)cn1CC(CO)(CO)C[18F] [Compound 2, 1-(2,2-Dihydroxymethyl-3-[^18F]fluoropropyl)-4-hydroxymethyl-2-nitroimidazole] | intense accumulation of compound 2 and compound 3 was found in the bladder and accumulation thereof was found in the intestinal tract | tumor-specific accumulation | low physiological accumulation in the liver | excreted mainly via the kidney and urinary tract system | 0.80 | 0.60 | 7.54 | 1.32 | 1.86 | 0.96 | 1.14 | 0.89 | 1.25 | 2.35 | 0.48 | 2.11 | 0.91 | 1.13 | 80.42 | 0.25 | Gall bladder [3, 5]: 7.33 % ID/g; Heart [3, 5]: 0.74 % ID/g; Kidney [3, 5]: 0.82 % ID/g; Large intestine [3, 5]: 0.88 % ID/g; Liver [3, 5]: 0.54 % ID/g; Lung [3, 5]: 0.34 % ID/g; Muscle [3, 5]: 0.47 % ID/g; Small intestine [3, 5]: 1.63 % ID/g; Stomach [3, 5]: 0.25 % ID/g; T/B (tumor/blood ratio) [3, 5]: 3.18; T/M (tumor/muscle ratio) [3, 5]: 1.68; Tumor [3, 5]: 0.78 % ID/g; Urine [3, 5]: 90.92 % ID; Blood clearance and urinary excretion [3]: even more rapid
3 | O=[N+]([O-])c1nccn1CCC(CO)(CO)C[18F] [Compound 3, 1-(3,3-Dihydroxymethyl-4-[^18F]fluorobutyl)-2-nitroimidazole] | intense accumulation of compound 2 and compound 3 was found in the bladder and accumulation thereof was found in the intestinal tract; also recorded: accumulation of compound 3 in the gallbladder | tumor-specific accumulation | low physiological accumulation in the liver | excreted via the kidney and urinary tract system and the hepatobiliary system | 0.61 | 2.81 | 16.71 | 3.46 | 9.95 | 5.40 | 4.46 | 2.92 | 2.66 | 4.68 | 1.99 | 0.86 | 0.87 | 2.05 | 45.80 | 1.14 | Gall bladder [3, 5]: 15.45 % ID/g; Heart [3, 5]: 1.82 % ID/g; Kidney [3, 5]: 9.20 % ID/g; Large intestine [3, 5]: 6.89 % ID/g; Liver [3, 5]: 2.13 % ID/g; Lung [3, 5]: 1.38 % ID/g; Muscle [3, 5]: 1.44 % ID/g; Small intestine [3, 5]: 3.66 % ID/g; Stomach [3, 5]: 1.26 % ID/g; T/B (tumor/blood ratio) [3, 5]: 2.11; T/M (tumor/muscle ratio) [3, 5]: 1.62; Tumor [3, 5]: 1.93 % ID/g; Urine [3, 5]: 68.78 % ID; Blood clearance and urinary excretion [3]: rapid blood clearance and urinary excretion compared with [^18F]FMISO
